Test results reported in paper PMC9948168, “Vanillin-Based Indolin-2-one Derivative Bearing a Pyridyl Moiety as a Promising Anti-Breast Cancer Agent via Anti-Estrogenic Activity” (ACS Omega, 2023).

Columns and labels:
Assay in all cases: NCI-60 one-dose screening
Type in all cases: cell-based
HL-60(TB) = settings: Homo sapiens, Leukemias, read-out: GI (%)
Description: (§1) Compounds 5a–c and 6a–o were tested using standard NCI protocols for in vitro activity at the National Cancer Institute (NCI, Bethesda, Maryland, USA), wherein compounds were tested using one single concentration of 10 μM against 60 cell lines of nine different cancer types. […] Excellent activity was observed against a single NSCLC cell line, EKVX, for compounds 5a–c (GIs = 77–86%, Table 1) with no observed activity for indoles with substituted vanillin 6a–o.
(§2) Anticancer activity was tested against 60 cancer cell lines at the NCI, Bethesda, USA. The screening process was done with a single dosage of 10 μM according to NCI protocols published on the NCI website https://dtp.cancer.gov/discovery_development/nci-60/methodology.htm.

CCRF-CEM = settings: Homo sapiens, Leukemias, read-out: GI (%)
Description: as §1, §2

SF-539 = settings: Homo sapiens, SF-539, CNS Cancer, read-out: GI (%)
Description: as §1, §2

NCI-H460 = settings: Homo sapiens, NCI-H460, Non-Small Cell Lung Cancer, read-out: GI (%)
Description: as §1, §2

786-0 = settings: Homo sapiens, 786-0, Renal Cancer, read-out: GI (%)
Description: as §1, §2

HT29 = settings: Homo sapiens, HT-29, HT29, Colon Cancer, read-out: GI (%)
Description: as §1, §2

IGROV1 = settings: Homo sapiens, IGROV-1, IGROV1, Ovarian Cancer, read-out: GI (%)
Description: as §1, §2

SNB-75 = settings: Homo sapiens, SNB-75, CNS Cancer, read-out: GI (%)
Description: as §1, §2

A498 = settings: Homo sapiens, A498, Renal Cancer, read-out: GI (%)
Description: as §1, §2

SW-620 = settings: Homo sapiens, SW-620, Colon Cancer, read-out: GI (%)
Description: as §1, §2

SF-295 = settings: Homo sapiens, SF-295, CNS Cancer, read-out: GI (%)
Description: as §1, §2

DU-145 = settings: Homo sapiens, DU-145, Prostate Cancer, read-out: GI (%)
Description: as §1, §2

NCI/ADR-RES = settings: Homo sapiens, Ovarian Cancer, read-out: GI (%)
Description: as §1, §2

MDA-MB-231/ATCC = settings: Homo sapiens, Breast Cancer, read-out: GI (%)
Description: as §1, §2

K-562 = settings: Homo sapiens, K562, K-562, Leukemias, read-out: GI (%)
Description: as §1, §2

MDA-MB-468 = settings: Homo sapiens, MDA-MB-468, Breast Cancer, read-out: GI (%)
Description: as §1, §2

SK-OV-3 = settings: Homo sapiens, SK-OV-3, Ovarian Cancer, read-out: GI (%)
Description: as §1, §2

UO-31 = settings: Homo sapiens, UO-31, Renal Cancer, read-out: GI (%)
Description: as §1, §2

OVCAR-5 = settings: Homo sapiens, OVCAR-5, Ovarian Cancer, read-out: GI (%)
Description: as §1, §2

A549/ATCC = settings: Homo sapiens, Non-Small Cell Lung Cancer, read-out: GI (%)
Description: as §1, §2

U251 = settings: Homo sapiens, U-251, U251, CNS Cancer, read-out: GI (%)
Description: as §1, §2

HCT-116 = settings: Homo sapiens, HCT-116, Colon Cancer, read-out: GI (%)
Description: as §1, §2

NCI-H226 = settings: Homo sapiens, NCI-H226, Non-Small Cell Lung Cancer, read-out: GI (%)
Description: as §1, §2

BT-549 = settings: Homo sapiens, BT-549, Breast Cancer, read-out: GI (%)
Description: as §1, §2

SK-MEL-28 = settings: Homo sapiens, SK-MEL-28, Melanoma, read-out: GI (%)
Description: as §1, §2

UACC-257 = settings: Homo sapiens, UACC-257, Melanoma, read-out: GI (%)
Description: as §1, §2

HOP-62 = settings: Homo sapiens, HOP-62, Non-Small Cell Lung Cancer, read-out: GI (%)
Description: as §1, §2

LOX IMVI = settings: Homo sapiens, Melanoma, read-out: GI (%)
Description: as §1, §2

COLO 205 = settings: Homo sapiens, COLO 205, Colon Cancer, read-out: GI (%)
Description: as §1, §2

ACHN = settings: Homo sapiens, Renal Cancer, read-out: GI (%)
Description: as §1, §2

HS 578T = settings: Homo sapiens, Breast Cancer, read-out: GI (%)
Description: as §1, §2

UACC-62 = settings: Homo sapiens, UACC-62, Melanoma, read-out: GI (%)
Description: as §1, §2

NCI-H522 = settings: Homo sapiens, NCI-H522, Non-Small Cell Lung Cancer, read-out: GI (%)
Description: as §1, §2

SNB-19 = settings: Homo sapiens, SNB-19, CNS Cancer, read-out: GI (%)
Description: as §1, §2

MCF7 = settings: Homo sapiens, MCF7, 10 μM; MCF7, Breast Cancer; read-out: GI (%)
Description: as §1, §2

EKVX = settings: Homo sapiens, Non-Small Cell Lung Cancer, read-out: GI (%)
Description: as §1, §2

Row | Compound | inhibition at 10 µM (HL-60(TB)) | inhibition at 10 µM (CCRF-CEM) | inhibition at 10 µM (SF-539) | inhibition at 10 µM (NCI-H460) | inhibition at 10 µM (786-0) | inhibition at 10 µM (HT29) | inhibition at 10 µM (IGROV1) | inhibition at 10 µM (SNB-75) | inhibition at 10 µM (A498) | inhibition at 10 µM (SW-620) | inhibition at 10 µM (SF-295) | inhibition at 10 µM (DU-145) | inhibition at 10 µM (NCI/ADR-RES) | inhibition at 10 µM (MDA-MB-231/ATCC) | inhibition at 10 µM (K-562) | inhibition at 10 µM (MDA-MB-468) | inhibition at 10 µM (SK-OV-3) | inhibition at 10 µM (UO-31) | inhibition at 10 µM (OVCAR-5) | inhibition at 10 µM (A549/ATCC) | further results
1 | COc1cc(C=C2C(=O)Nc3ccc(Cl)cc32)ccc1OCc1ccccn1 (mixture of isomers) [6j] | 3.78% | 2.39% | 4.61% | -4.56% | -1.2% | -8.55% | 13.4% | 14.8% | 0.8% | 2.21% | 6.2% | -7.75% | 5.4% | 4.62% | 5.33% | 14.6% | -4.32% | 29.6% | 0.34% | -2.5% | inhibition at 10 µM (U251): 5.39%; inhibition at 10 µM (HCT-116): -2.75%; inhibition at 10 µM (NCI-H226): 6.59%; inhibition at 10 µM (BT-549): -8.61%; inhibition at 10 µM (SK-MEL-28): -15.1%; inhibition at 10 µM (UACC-257): -5.04%; inhibition at 10 µM (HOP-62): 5.56%; inhibition at 10 µM (LOX IMVI): 14.8%; inhibition at 10 µM (COLO 205): -10.1%; inhibition at 10 µM (ACHN): 3.24%; inhibition at 10 µM (HS 578T): -2.66%; inhibition at 10 µM (UACC-62): 21.4%; inhibition at 10 µM (NCI-H522): 4.56%; inhibition at 10 µM (SNB-19): 8.13%; inhibition at 10 µM (MCF7): 63%; inhibition at 10 µM (EKVX): 27%
2 | COc1cc(/C=C2/C(=O)Nc3cc(Cl)ccc32)ccc1OCc1ccccc1 [6k] | -20.2% | -1.12% | 5.85% | 1.83% | -8.46% | -1.24% | 23.4% | 3.2% | -15.1% | 2.54% | -1.02% | -4.08% | -3.53% | 8.09% | 3.86% | 7.61% | -10.9% | 16.2% | 3.05% | -8.61% | inhibition at 10 µM (U251): -7.73%; inhibition at 10 µM (HCT-116): -2.15%; inhibition at 10 µM (NCI-H226): 1.98%; inhibition at 10 µM (BT-549): 16.8%; inhibition at 10 µM (SK-MEL-28): -6.39%; inhibition at 10 µM (UACC-257): -10.4%; inhibition at 10 µM (HOP-62): 0.16%; inhibition at 10 µM (LOX IMVI): 16.1%; inhibition at 10 µM (COLO 205): -16.6%; inhibition at 10 µM (ACHN): 7.71%; inhibition at 10 µM (HS 578T): 0.08%; inhibition at 10 µM (UACC-62): 6.07%; inhibition at 10 µM (NCI-H522): 4.41%; inhibition at 10 µM (SNB-19): 1.7%; inhibition at 10 µM (MCF7): 31%; inhibition at 10 µM (EKVX): 17.2%
3 | COc1cc(/C=C2/C(=O)Nc3ccccc32)ccc1OCc1ccc(F)cc1 [6c] | -15.2% | -2.41% | -2.09% | 13.6% | -6.73% | -4.59% | -1.33% | -5.65% | 10.8% | -5.55% | -1.97% | -6.42% | -2.39% | -0.03% | -3.95% | -2.14% | -14.1% | 15.3% | -6.64% | -7.83% | inhibition at 10 µM (U251): -6.26%; inhibition at 10 µM (HCT-116): -6.72%; inhibition at 10 µM (NCI-H226): -0.42%; inhibition at 10 µM (BT-549): -15.7%; inhibition at 10 µM (SK-MEL-28): -10.2%; inhibition at 10 µM (UACC-257): -18.2%; inhibition at 10 µM (HOP-62): -0.35%; inhibition at 10 µM (LOX IMVI): 2.75%; inhibition at 10 µM (COLO 205): -11.2%; inhibition at 10 µM (ACHN): -2.09%; inhibition at 10 µM (HS 578T): -15.2%; inhibition at 10 µM (UACC-62): 7.29%; inhibition at 10 µM (NCI-H522): 8.05%; inhibition at 10 µM (SNB-19): 0.68%; inhibition at 10 µM (MCF7): 12.2%; inhibition at 10 µM (EKVX): 2.35%
4 | COc1cc(C=C2C(=O)Nc3ccc(Cl)cc32)ccc1O (mixture of isomers) [5b] | 23.1% | 22.6% | 46.4% | 7.4% | 0.79% | -0.33% | 16.2% | 50.1% | 25.6% | -3.74% | 8.92% | 33.1% | 9.66% | 36.7% | 28.1% | 31.3% | -6.08% | 45% | 0.41% | 3.56% | inhibition at 10 µM (U251): 39.8%; inhibition at 10 µM (HCT-116): 21.2%; inhibition at 10 µM (NCI-H226): 2.25%; inhibition at 10 µM (BT-549): 25%; inhibition at 10 µM (SK-MEL-28): 5.35%; inhibition at 10 µM (UACC-257): 13.5%; inhibition at 10 µM (HOP-62): 16.5%; inhibition at 10 µM (LOX IMVI): 22.5%; inhibition at 10 µM (COLO 205): -11.7%; inhibition at 10 µM (ACHN): 26%; inhibition at 10 µM (HS 578T): 80.1%; inhibition at 10 µM (UACC-62): 87.1%; inhibition at 10 µM (NCI-H522): 20.1%; inhibition at 10 µM (SNB-19): 20.7%; inhibition at 10 µM (MCF7): 57.5%; inhibition at 10 µM (EKVX): 86.3%
5 | COc1cc(C=C2C(=O)Nc3ccccc32)ccc1OCc1ccccn1 (mixture of isomers) [6e] | 13% | 8.27% | 15.1% | 0.59% | 1.32% | 1.19% | 21% | -6.42% | 22.2% | -0.45% | 4.7% | 1.98% | 4.39% | 18.1% | 19.6% | 14.2% | -2% | 30.7% | -3.35% | -7.19% | inhibition at 10 µM (U251): 9.28%; inhibition at 10 µM (HCT-116): 3.95%; inhibition at 10 µM (NCI-H226): 6.29%; inhibition at 10 µM (BT-549): -6.45%; inhibition at 10 µM (SK-MEL-28): -7.83%; inhibition at 10 µM (UACC-257): -10.9%; inhibition at 10 µM (HOP-62): 7.92%; inhibition at 10 µM (LOX IMVI): 3.36%; inhibition at 10 µM (COLO 205): -16%; inhibition at 10 µM (ACHN): 9.08%; inhibition at 10 µM (HS 578T): -1.16%; inhibition at 10 µM (UACC-62): 11.6%; inhibition at 10 µM (NCI-H522): 5.36%; inhibition at 10 µM (SNB-19): 9.82%; inhibition at 10 µM (MCF7): 50 to 65%; inhibition at 10 µM (EKVX): 22.4%
